Data on three compounds can be found in patent US20210299044A1, “SYSTEMS AND METHODS FOR DELIVERY OF DRUGS AND OTHER SUBSTANCES COMPRISING DEEP EUTECTIC SOLVENTS” (Novilla Pharmaceuticals, Inc., priority 2018, published 2021).

Molecules are shown by their SMILES.

The conditions of data set [1]: values stated in description, no method given; cited from earlier work.
Data set [2] can be described thus: Hydrolysis of aspirin in choline chloride/urea deep eutectic solvent, determined using HPLC. The class given is physicochemical. The procedure: In this example, an aspirin formulation was prepared using choline chloride and urea. In this example, choline chloride was heated in an oven at 65° C. for 10 hours. Then, 1 part choline chloride (by volume) was added to 2 parts urea in a beaker. The beaker was sealed with parafilm and the choline chloride and urea allowed to mix to form a deep eutectic solvent (DES). Next, the mixture was passed through a 4A 8-12 mesh molecular sieve, and stirred overnight, to form anhydrous DES.
50 mg/ml of aspirin was then added to the DES. […] The hydrolysis was determined using HPLC.
It is believed that heating the choline chloride removes water.

Turning to `CN(C)CCc1c[nH]c2ccc(CS(=O)(=O)N3CCCC3)cc12` [almotriptan], the pKa in data set [1] was 8.77.

`CC(=O)Oc1ccccc1C(=O)O` [aspirin, acetylsalicylic acid]: the “aspirin found to have hydrolyzed” value in data set [2] (50 mg/ml aspirin in anhydrous DES (1 part choline chloride : 2 parts urea by volume), choline chloride heated at 65° C. for 10 hours, molecular sieve, HPLC) is 1%. Besides, the “aspirin found to hydrolyze” value in data set [2] (comparison: choline chloride and urea mixed without heating the choline chloride, same procedure otherwise) is reported as “over 8%”.

As for `CN[C@@H]1CCc2[nH]c3ccc(C(N)=O)cc3c2C1` [frovatriptan], the pKa in data set [1] is 17.27.
